{
  "source": "patent US20070209082A1",
  "about": "“Txr1 and enhanced taxane sensitivity based on the modulation of a pathway mediated thereby” (priority 2005, published 2007)",
  "key": {"Clone 18 [1]": {"test_system": "Clone 18", "test": "MTT assay of drug sensitivity, Clone 18 cells", "details": "for Fold of resistance (Clone 18/M2182tTA): IC50 of clone 18 divided by IC50 of M2182tTA; for Effect on taxol resistance / taxol cytotoxicity of clone 18: agent added with taxol, MTT assay", "procedure": "(§1) For subsequent plate assays of the effects of taxol and other drugs on colony formation, 1×10^4 cells per 10 cm plate or per each well of six-well plate were seeded one day prior to drug treatment at the concentrations indicated. After 7 to 14 days exposure to drug, the resistant colonies were stained with 0.5% crystal violet solution and photographed. For quantitative determination of the surviving fraction, the collection of crystal violet stained colonies were incubated with 0.5 ml of DMSO overnight and the absorbance at 570 nm of dye extracted solution was measured. The fraction of surviving cells was calculated relative to non-treated controls. Results were averaged from at least two to three independent experiments. For IC50 determination, 3×10^3 cells per well of a 96-well plate were seeded one day prior to treatment by serially diluted drugs or in combination with indicated protein/peptides. The viability of treated cells was quantified by their ability to reduce tetrazolium salt 3-(4,5-dimethylthiazol-2-y)-2,5-diphenyl tetrasodium bromide (MTT, Sigma) to a formazan dye whose absorbance is detectable at 570 nm. The IC50 value was defined as the dose of taxol that inhibited cell growth by 50%."}, "M2182tTA": {"test_system": "M2182tTA", "test": "MTT assay of drug sensitivity, M2182tTA cells", "format": "cell-based, human", "details": "for Effect on killing of naive M2182tTA cells by taxol: agent added with taxol", "procedure": "as §1"}, "Clone 18 cells": {"test_system": "Clone 18 cells", "test": "TUNEL assay of apoptosis, clone 18 cells", "format": "cell-based, human", "details": "clone 18, TSP-1 plus taxol", "procedure": "For subsequent plate assays of the effects of taxol and other drugs on colony formation, 1×10^4 cells per 10 cm plate or per each well of six-well plate were seeded one day prior to drug treatment at the concentrations indicated. After 7 to 14 days exposure to drug, the resistant colonies were stained with 0.5% crystal violet solution and photographed. For quantitative determination of the surviving fraction, the collection of crystal violet stained colonies were incubated with 0.5 ml of DMSO overnight and the absorbance at 570 nm of dye extracted solution was measured. The fraction of surviving cells was calculated relative to non-treated controls. Results were averaged from at least two to three independent experiments. For IC50 determination, 3×10^3 cells per well of a 96-well plate were seeded one day prior to treatment by serially diluted drugs or in combination with indicated protein/peptides. The viability of treated cells was quantified by their ability to reduce tetrazolium salt 3-(4,5-dimethylthiazol-2-y)-2,5-diphenyl tetrasodium bromide (MTT, Sigma) to a formazan dye whose absorbance is detectable at 570 nm. The IC50 value was defined as the dose of taxol that inhibited cell growth by 50%. […]"}, "Clone 18 [2]": {"test_system": "Clone 18", "procedure": "as §1"}, "[3]": {"details": "agent added with adriamycin, etoposide, vinblastine, vincristine or epothilone B"}},
  "note": "Like-named read-outs stand apart in the source and are kept apart here. Ends that are not written are not given here.",
  "data": [
    {"molecule": "CC[C@]1(O)C[C@@H]2CN(CCc3c([nH]c4ccccc34)[C@@](C(=O)OC)(c3cc4c(cc3OC)N(C)[C@H]3[C@@](O)(C(=O)OC)[C@H](OC(C)=O)[C@]5(CC)C=CCN6CC[C@]43[C@@H]65)C2)C1", "note": "[Vinblastine, vinblastine]", "values": [
      {"measurement": "Reduced killing of clone 18 cells (versus parental cells)", "setting": "Clone 18 [1]", "value": "No evidence of reduced killing"}
    ]},
    {"molecule": "TSP-1: TSP-1 purified from human platelets; extracellular matrix bound adhesive glycoprotein", "values": [
      {"measurement": "Ability of TSP-1 alone to reduce survival and induce apoptosis", "setting": "Clone 18 [1]; TSP-1 alone, at the dosage added to cultures of clone 18 cells", "value": "only limited ability to reduce survival and induce apoptosis"},
      {"measurement": "Effect on killing of clone 18 cells by other chemotherapeutic agents", "setting": "Clone 18 [1]; [3]", "value": "no effects"},
      {"measurement": "Effect on sensitivity of M2182tTA cells to other chemotherapeutic drugs", "setting": "M2182tTA; [3]", "value": "sensitization was not observed"},
      {"measurement": "Effect on killing of naive M2182tTA cells by taxol", "setting": "M2182tTA; MTT assay", "value": "reduced survival"},
      {"measurement": "Taxol-induced apoptosis", "setting": "Clone 18 cells", "value": "dramatically and synergistically increased"},
      {"measurement": "Effect on taxol resistance / taxol cytotoxicity of clone 18", "setting": "Clone 18 [2]", "value": "dose-dependent partial reversal"}
    ]},
    {"molecule": "COc1cccc2c1C(=O)c1c(O)c3c(c(O)c1C2=O)C[C@@](O)(C(=O)CO)C[C@@H]3O[C@H]1C[C@H](N)[C@H](O)[C@H](C)O1", "note": "[Adriamycin, adriamycin]", "values": [
      {"measurement": "Reduced killing of clone 18 cells (versus parental cells)", "setting": "Clone 18 [1]", "value": "No evidence of reduced killing"}
    ]},
    {"molecule": "COc1cc([C@@H]2c3cc4c(cc3[C@@H](O[C@@H]3O[C@@H]5CO[C@@H](C)O[C@H]5[C@H](O)[C@H]3O)[C@H]3COC(=O)[C@H]23)OCO4)cc(OC)c1O", "note": "[Etoposide, etoposide]", "values": [
      {"measurement": "Reduced killing of clone 18 cells (versus parental cells)", "setting": "Clone 18 [1]", "value": "No evidence of reduced killing"}
    ]},
    {"molecule": "CC[C@]1(O)C[C@H]2CN(CCc3c([nH]c4ccccc34)[C@@](C(=O)OC)(c3cc4c(cc3OC)N(C=O)[C@H]3[C@@](O)(C(=O)OC)[C@H](OC(C)=O)[C@]5(CC)C=CCN6CC[C@]43[C@@H]65)C2)C1", "note": "[Vincristine, vincristine]", "values": [
      {"measurement": "Reduced killing of clone 18 cells (versus parental cells)", "setting": "Clone 18 [1]", "value": "No evidence of reduced killing"}
    ]},
    {"molecule": "CC(=O)O[C@H]1C(=O)[C@@]2(C)[C@H]([C@H](OC(=O)c3ccccc3)[C@]3(O)C[C@H](OC(=O)[C@H](O)[C@@H](NC(=O)c4ccccc4)c4ccccc4)C(C)=C1C3(C)C)[C@]1(OC(C)=O)CO[C@@H]1C[C@@H]2O", "note": "[Taxol, Paclitaxel]", "values": [
      {"measurement": "Fold of resistance (Clone 18/M2182tTA)", "setting": "Clone 18 [1]", "value": "approximately two and a half-fold greater"}
    ]},
    {"molecule": "KRFYGGMWKK [4NGG]", "values": [
      {"measurement": "Effect on taxol resistance / taxol cytotoxicity of clone 18", "setting": "Clone 18 [1]", "value": "no effect"}
    ]},
    {"molecule": "GVITRIR (human) [ABT-510]", "values": [
      {"measurement": "Effect on taxol resistance / taxol cytotoxicity of clone 18", "setting": "Clone 18 [1]", "value": "absence of any detectable effect"},
      {"measurement": "Effect on taxol resistance / taxol cytotoxicity of clone 18", "setting": "Clone 18 [1]; listed as ABT510", "value": "no effect"},
      {"measurement": "Effect on killing of naive M2182tTA cells by taxol", "setting": "M2182tTA; MTT assay", "value": "not and absence of any detectable effect"}
    ]},
    {"molecule": "C/C(=C\\c1csc(C)n1)[C@@H]1C[C@@H]2O[C@]2(C)CCC[C@H](C)[C@H](O)[C@@H](C)C(=O)C(C)(C)[C@@H](O)CC(=O)O1", "note": "[Epothilone B]", "values": [
      {"measurement": "Reduced killing of clone 18 cells (versus parental cells)", "setting": "Clone 18 [1]", "value": "No evidence of reduced killing"},
      {"measurement": "Fold of resistance (Clone 18/M2182tTA)", "setting": "Clone 18 [1]", "value": 0.9}
    ]},
    {"molecule": "KRFYVVMWKK [4N1K]", "values": [
      {"measurement": "Effect on taxol resistance / taxol cytotoxicity of clone 18", "setting": "Clone 18 [1]", "value": "dose-dependent partial reversal"}
    ]},
    {"molecule": "pertussus toxin", "values": [
      {"measurement": "Cells that survive taxol treatment", "setting": "M2182tTA; M2182tTA, 0.5 μg/ml pertussis toxin, MTT assay", "value": "An increase in cells that survive taxol treatment"}
    ]}
  ]
}
